In patent US20260070945A1, “MACROCYCLIC IMMUNOMODULATORS” (Bristol-Myers Squibb Company, priority 2022, published 2026):
Where a SMILES comes first, the peptide text is derived from it. Bridges are numbered along the chain shown (N, C = ends). [ ]: non-standard residue; d: D form. The star is where a group is joined. ξ: configuration not given here. Phe(3-CF3) = N[C@@H](Cc1cccc(C(F)(F)F)c1)C(=O)O; Phe(4-COOH) = N[C@@H](Cc1ccc(C(=O)O)cc1)C(=O)O; Bip = N[C@@H](Cc1ccc(-c2ccccc2)cc1)C(=O)O; Phe(3-CN) = N#Cc1cccc(C[C@H](N)C(=O)O)c1; Phe(3-Cl) = N[C@@H](Cc1cccc(Cl)c1)C(=O)O; Morpholine(3S-CO) = O=C(O)[C@@H]1COCCN1; Phe(3-Me) = Cc1cccc(C[C@H](N)C(=O)O)c1; Pip(4-aza) = O=C(O)[C@@H]1CNCCN1; 4Pal = N[C@@H](Cc1ccncc1)C(=O)O; Cha = N[C@@H](CC1CCCCC1)C(=O)O; Cit = NC(=O)NCCC[C@H](N)C(=O)O; Thr(3ξ) = CC(O)[C@H](N)C(=O)O; Carboxymethyl = O=C(O)C*; NMeA = CN[C@@H](C)C(=O)O; Aun = NCCCCCCCCCCC(=O)O; Dab = NCC[C@H](N)C(=O)O; AEEA = NCCOCCOCC(=O)O

Biological target: T1, PD-1/PD-L1 interaction (PE-labeled human PD-L1-Ig binding to Jurkat cell line over-expressing human PD-1) (Homo sapiens, UniProt Q15116)
T1 construct: expressed in transfected cells; host or cells: Jurkat
T1 sequence (Q15116 25-288): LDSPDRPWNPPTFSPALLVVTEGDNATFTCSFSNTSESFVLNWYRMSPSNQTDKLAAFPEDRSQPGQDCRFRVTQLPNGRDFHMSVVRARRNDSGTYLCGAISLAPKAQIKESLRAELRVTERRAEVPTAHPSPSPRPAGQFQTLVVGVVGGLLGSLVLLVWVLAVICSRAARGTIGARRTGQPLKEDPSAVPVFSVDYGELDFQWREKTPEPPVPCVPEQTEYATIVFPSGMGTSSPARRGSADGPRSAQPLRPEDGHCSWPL
Experiment: Jurkat-PD-1 Cell Binding High-Content Screening Assay (CBA)
Conditions: Jurkat-hPD-1 cells, PE-labeled PD-L1-Ig 20 nM final; read-out: Jurkat HPD1 PDL1 IC50
Outline: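 Compound is added first to the PD-1-expressing Jurkat cells and held 2 h at 37 °C in serum-containing DMEM. The fluorescent PD-L1 fusion follows at 20 nM final for 1 h. Fixed, Hoechst-stained cells are then imaged for bound label.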

Row | SMILES | IC50 [nM]
1 | CC(C)C[C@@H]1NC(=O)[C@H](Cc2c[nH]c3ccccc23)NC(=O)[C@H](CC(=O)O)NC(=O)[C@H](Cc2ccncc2)NC(=O)[C@H](Cc2ccc(OCC(=O)O)cc2)NC(=O)CSC[C@@H](C(=O)N2CCNC[C@H]2C(=O)NCCCCCCCCCCC(=O)O)NC(=O)[C@H](C(C)O)NC(=O)[C@H](C(C)C)NC(=O)[C@H](CC2CCCCC2)NC(=O)[C@H](CCN)NC(=O)[C@@H](CC(C)C)NC(=O)[C@H](C)N(C)C(=O)[C@H](C(C)C)NC(=O)[C@H](Cc2ccc(-c3ccccc3)cc2)NC1=O (stereo partly drawn) [Example 1221] ({CH2CO}-Y(Carboxymethyl)[4Pal]DWL[Bip]V[NMeA][dL][Dab][Cha]V[Thr(3ξ)]C[Pip(4-aza)][Aun]-OH; thioether N-14) | 121
2 | CC(C)C[C@@H]1NC(=O)[C@H](Cc2c[nH]c3ccccc23)NC(=O)[C@H](CC(=O)O)NC(=O)[C@H](Cc2ccncc2)NC(=O)[C@H](Cc2ccc(OCC(=O)O)cc2)NC(=O)CSC[C@@H](C(=O)N2CCOC[C@H]2C(=O)NCCCCCCCCCCC(=O)O)NC(=O)[C@H](C(C)O)NC(=O)[C@H](C(C)C)NC(=O)[C@H](CC2CCCCC2)NC(=O)[C@H](CCN)NC(=O)[C@@H](CC(C)C)NC(=O)[C@H](C)N(C)C(=O)[C@H](C(C)C)NC(=O)[C@H](Cc2ccc(-c3ccccc3)cc2)NC1=O (stereo partly drawn) [Example 1222] ({CH2CO}-Y(Carboxymethyl)[4Pal]DWL[Bip]V[NMeA][dL][Dab][Cha]V[Thr(3ξ)]C[Morpholine(3S-CO)][Aun]-OH; thioether N-14) | 591
3 | CC(C)C[C@@H]1NC(=O)[C@H](Cc2c[nH]c3ccccc23)NC(=O)[C@H](CC(=O)O)NC(=O)[C@H](Cc2ccncc2)NC(=O)[C@H](Cc2ccc(OCC(=O)O)cc2)NC(=O)CSC[C@@H](C(=O)N2CCOC[C@H]2C(=O)NCCCCCCCCCCC(=O)O)NC(=O)[C@H](CCCNC(N)=O)NC(=O)[C@H](C(C)C)NC(=O)[C@H](CC2CCCCC2)NC(=O)[C@H](CCN)NC(=O)[C@@H](CC(C)C)NC(=O)[C@H](C)N(C)C(=O)[C@H](C(C)C)NC(=O)[C@H](Cc2ccc(-c3ccccc3)cc2)NC1=O [Example 1223] ({CH2CO}-Y(Carboxymethyl)[4Pal]DWL[Bip]V[NMeA][dL][Dab][Cha]V[Cit]C[Morpholine(3S-CO)][Aun]-OH; thioether N-14) | 420
4 | Cc1cccc(C[C@@H]2NC(=O)[C@H](CC(=O)O)NC(=O)[C@H](Cc3ccc(OCC(=O)O)cc3)NC(=O)[C@H](CCCNC(=N)N)NC(=O)CSC[C@@H](C(=O)N[C@@H](CCCCN)C(=O)NCCCCCCCCCCC(=O)O)NC(=O)[C@H]([C@@H](C)O)NC(=O)[C@H](C(C)C)NC(=O)[C@H](CC3CCCCC3)NC(=O)[C@H](CCN)NC(=O)[C@@H](CC(C)C)NC(=O)[C@H](C)N(C)C(=O)[C@H](Cc3ccc(OCC(=O)O)cc3)NC(=O)[C@H](Cc3ccc(-c4ccccc4)cc3)NC(=O)[C@H](Cc3ccc(OCC(=O)O)cc3)NC2=O)c1 [Example 1224] ({CH2CO}-RY(Carboxymethyl)D[Phe(3-Me)]Y(Carboxymethyl)[Bip]Y(Carboxymethyl)[NMeA][dL][Dab][Cha]VTCK[Aun]-OH; thioether N-14) | 27.9
5 | Cc1cccc(C[C@@H]2NC(=O)[C@H](CC(=O)O)NC(=O)[C@H](Cc3ccc(OCC(=O)O)cc3)NC(=O)[C@H](CCCNC(=N)N)NC(=O)CSC[C@@H](C(=O)N[C@@H](CCCCN)C(=O)NCCCCCCCCCCC(=O)O)NC(=O)[C@H]([C@@H](C)O)NC(=O)[C@H](C(C)C)NC(=O)[C@H](CC3CCCCC3)NC(=O)[C@H](CCN)NC(=O)[C@@H](CC(C)C)NC(=O)[C@H](C)N(C)C(=O)[C@H](Cc3ccc(OCC(=O)O)cc3)NC(=O)[C@H](Cc3ccc(-c4ccccc4)cc3)NC(=O)[C@H](Cc3ccc(C(=O)O)cc3)NC2=O)c1 [Example 1225] ({CH2CO}-RY(Carboxymethyl)D[Phe(3-Me)][Phe(4-COOH)][Bip]Y(Carboxymethyl)[NMeA][dL][Dab][Cha]VTCK[Aun]-OH; thioether N-14) | 48.7
6 | Cc1cccc(C[C@@H]2NC(=O)[C@H](CC(=O)O)NC(=O)[C@H](Cc3ccc(OCC(=O)O)cc3)NC(=O)[C@H](CCCCN)NC(=O)CSC[C@@H](C(=O)N[C@@H](CCCCN)C(=O)NCCCCCCCCCCC(=O)O)NC(=O)[C@H]([C@@H](C)O)NC(=O)[C@H](C(C)C)NC(=O)[C@H](CC3CCCCC3)NC(=O)[C@H](CCN)NC(=O)[C@@H](CC(C)C)NC(=O)[C@H](C)N(C)C(=O)[C@H](Cc3ccc(OCC(=O)O)cc3)NC(=O)[C@H](Cc3ccc(-c4ccccc4)cc3)NC(=O)[C@H](Cc3ccc(C(=O)O)cc3)NC2=O)c1 [Example 1226] ({CH2CO}-KY(Carboxymethyl)D[Phe(3-Me)][Phe(4-COOH)][Bip]Y(Carboxymethyl)[NMeA][dL][Dab][Cha]VTCK[Aun]-OH; thioether N-14) | 80.6
7 | Cc1cccc(C[C@@H]2NC(=O)[C@H](CC(=O)O)NC(=O)[C@H](Cc3ccc(OCC(=O)O)cc3)NC(=O)[C@H](CCCNC(=N)N)NC(=O)CSC[C@@H](C(=O)N[C@@H](CCCCN)C(=O)NCCCCCCCCCCC(=O)O)NC(=O)[C@H]([C@@H](C)O)NC(=O)[C@H](C(C)C)NC(=O)[C@H](CC3CCCCC3)NC(=O)[C@H](CCN)NC(=O)[C@@H](CC(C)C)NC(=O)[C@H](C)N(C)C(=O)[C@H](Cc3ccc(OCC(=O)O)cc3)NC(=O)[C@H](Cc3ccc(-c4ccccc4)cc3)NC(=O)[C@H](CCCNC(N)=O)NC2=O)c1 [Example 1227] ({CH2CO}-RY(Carboxymethyl)D[Phe(3-Me)][Cit][Bip]Y(Carboxymethyl)[NMeA][dL][Dab][Cha]VTCK[Aun]-OH; thioether N-14) | 33.9
8 | CC(C)C[C@H]1NC(=O)[C@H](C)N(C)C(=O)[C@H](Cc2ccc(OCC(=O)O)cc2)NC(=O)[C@H](Cc2ccc(-c3ccccc3)cc2)NC(=O)[C@H](Cc2ccc(OCC(=O)O)cc2)NC(=O)[C@H](Cc2cccc(C(F)(F)F)c2)NC(=O)[C@H](CC(=O)O)NC(=O)[C@H](Cc2ccc(OCC(=O)O)cc2)NC(=O)[C@H]([C@@H](C)O)NC(=O)CSC[C@@H](C(=O)N[C@@H](CCN)C(=O)NCCOCCOCC(=O)NCCCCCCCCCCC(=O)O)NC(=O)[C@H](CCC(=O)O)NC(=O)[C@H](C(C)C)NC(=O)[C@H](CC2CCCCC2)NC(=O)[C@H](CCN)NC1=O [Example 1228] ({CH2CO}-TY(Carboxymethyl)D[Phe(3-CF3)]Y(Carboxymethyl)[Bip]Y(Carboxymethyl)[NMeA][dL][Dab][Cha]VEC[Dab][AEEA][Aun]-OH; thioether N-14) | 16.9
9 | CC(C)C[C@H]1NC(=O)[C@H](C)N(C)C(=O)[C@H](Cc2ccc(OCC(=O)O)cc2)NC(=O)[C@H](Cc2ccc(-c3ccccc3)cc2)NC(=O)[C@H](Cc2ccc(OCC(=O)O)cc2)NC(=O)[C@H](Cc2cccc(Cl)c2)NC(=O)[C@H](CC(=O)O)NC(=O)[C@H](Cc2ccc(OCC(=O)O)cc2)NC(=O)[C@H]([C@@H](C)O)NC(=O)CSC[C@@H](C(=O)N[C@@H](CCN)C(=O)NCCOCCOCC(=O)NCCCCCCCCCCC(=O)O)NC(=O)[C@H](CCC(=O)O)NC(=O)[C@H](C(C)C)NC(=O)[C@H](CC2CCCCC2)NC(=O)[C@H](CCN)NC1=O [Example 1229] ({CH2CO}-TY(Carboxymethyl)D[Phe(3-Cl)]Y(Carboxymethyl)[Bip]Y(Carboxymethyl)[NMeA][dL][Dab][Cha]VEC[Dab][AEEA][Aun]-OH; thioether N-14) | 15.2
10 | CC(C)C[C@H]1NC(=O)[C@H](C)N(C)C(=O)[C@H](Cc2ccc(OCC(=O)O)cc2)NC(=O)[C@H](Cc2ccc(-c3ccccc3)cc2)NC(=O)[C@H](Cc2ccc(OCC(=O)O)cc2)NC(=O)[C@H](Cc2cccc(C#N)c2)NC(=O)[C@H](CC(=O)O)NC(=O)[C@H](Cc2ccc(OCC(=O)O)cc2)NC(=O)[C@H]([C@@H](C)O)NC(=O)CSC[C@@H](C(=O)N[C@@H](CCN)C(=O)NCCOCCOCC(=O)NCCCCCCCCCCC(=O)O)NC(=O)[C@H](CCC(=O)O)NC(=O)[C@H](C(C)C)NC(=O)[C@H](CC2CCCCC2)NC(=O)[C@H](CCN)NC1=O [Example 1230] ({CH2CO}-TY(Carboxymethyl)D[Phe(3-CN)]Y(Carboxymethyl)[Bip]Y(Carboxymethyl)[NMeA][dL][Dab][Cha]VEC[Dab][AEEA][Aun]-OH; thioether N-14) | 128
11 | CC(C)C[C@H]1NC(=O)[C@H](C)N(C)C(=O)[C@H](Cc2ccc(OCC(=O)O)cc2)NC(=O)[C@H](Cc2ccc(-c3ccccc3)cc2)NC(=O)[C@H](Cc2ccc(C(=O)O)cc2)NC(=O)[C@H](Cc2cccc(C(F)(F)F)c2)NC(=O)[C@H](CC(=O)O)NC(=O)[C@H](Cc2ccc(OCC(=O)O)cc2)NC(=O)[C@H]([C@@H](C)O)NC(=O)CSC[C@@H](C(=O)N[C@@H](CCN)C(=O)NCCCCCCCCCCC(=O)O)NC(=O)[C@H]([C@@H](C)O)NC(=O)[C@H](C(C)C)NC(=O)[C@H](CC2CCCCC2)NC(=O)[C@H](CCN)NC1=O [Example 1231] ({CH2CO}-TY(Carboxymethyl)D[Phe(3-CF3)][Phe(4-COOH)][Bip]Y(Carboxymethyl)[NMeA][dL][Dab][Cha]VTC[Dab][Aun]-OH; thioether N-14) | 30.2
12 | CC(C)C[C@H]1NC(=O)[C@H](C)N(C)C(=O)[C@H](Cc2ccc(OCC(=O)O)cc2)NC(=O)[C@H](Cc2ccc(-c3ccccc3)cc2)NC(=O)[C@H](Cc2ccc(C(=O)O)cc2)NC(=O)[C@H](Cc2cccc(Cl)c2)NC(=O)[C@H](CC(=O)O)NC(=O)[C@H](Cc2ccc(OCC(=O)O)cc2)NC(=O)[C@H]([C@@H](C)O)NC(=O)CSC[C@@H](C(=O)N[C@@H](CCN)C(=O)NCCCCCCCCCCC(=O)O)NC(=O)[C@H]([C@@H](C)O)NC(=O)[C@H](C(C)C)NC(=O)[C@H](CC2CCCCC2)NC(=O)[C@H](CCN)NC1=O [Example 1232] ({CH2CO}-TY(Carboxymethyl)D[Phe(3-Cl)][Phe(4-COOH)][Bip]Y(Carboxymethyl)[NMeA][dL][Dab][Cha]VTC[Dab][Aun]-OH; thioether N-14) | 34.1
